Where two headings read alike, the source gives them in different places. Starred links: 1 amine or outer side, 2 acyl side, 3 side chain; linkers in the order of their positions; H or OH if unused. Positions of bridges follow the written chain, without caps; N, C: chain ends. Residues, ends and D or L forms follow the SMILES beside them. No end group written: not given here. Suc = O=C(CCC(=O)[*:2])[*:1]
Target: IGFBP-3 (Homo sapiens, UniProt P17936)
Assay: BIAcore competition assay, IGFBP-3 binding to immobilized IGF-I
Details: for IGF-I Inhibition IC50 (mut)/IC50 (wt): bp3-01-ox variants by BIAcore, wt = bp3-01-ox
Procedure: A. BIAcore™ Competition Assay (for IGFBP-3 Binders)
IGF-I was immobilized on a dextran chip for inhibition assays using a BIAcore™ 2000 surface-plasmon-resonance device (BIAcore, Inc., Piscataway, N.J.) to measure free binding protein. […] Serial dilutions of peptide were mixed with a constant concentration (40 nM) of IGFBP-3. After incubation for >1 hour at room temperature, an aliquot of 20 μL was injected at a flow rate of 20 μL/min over the IGF-I chip. Following the injection, a response reading was taken to measure the relative amount of IGFBP-3 bound to the IGF-I.

[1] = 40 nM IGFBP-3, 400 to 800 RU immobilized IGF-I, read-out: BIAcore Assay IC50, inhibition of IGF-I binding to IGFBP-3
[2] = bp3-01-ox variants by BIAcore competition assay, read-out: IGF-I Inhibition IC50

Sequence of IGFBP-3 (P17936 28-291): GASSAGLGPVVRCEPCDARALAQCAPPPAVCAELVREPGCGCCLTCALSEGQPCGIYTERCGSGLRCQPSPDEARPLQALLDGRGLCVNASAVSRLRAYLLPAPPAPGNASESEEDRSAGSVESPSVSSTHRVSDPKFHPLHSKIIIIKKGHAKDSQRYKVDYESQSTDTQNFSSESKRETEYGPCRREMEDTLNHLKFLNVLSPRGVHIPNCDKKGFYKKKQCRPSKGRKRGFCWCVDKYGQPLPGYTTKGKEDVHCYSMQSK

Compound	IC50 [1] [µM]	IC50 [2] [µM]	IGF-I Inhibition IC50 (mut)/IC50 (wt)	other results
CC[C@H](C)[C@@H]1NC(=O)[C@H](C(C)C)NC(=O)[C@H](Cc2ccc(O)cc2)NC(=O)CNC(=O)[C@@H]2CCCN2C(=O)CNC(=O)[C@H](CCC(=O)O)NC(=O)[C@H](Cc2ccccc2)NC(=O)[C@@H](NC(=O)[C@H](CCC(=O)O)NC(=O)[C@H](CO)NC(=O)[C@H](CCC(=O)O)NC(=O)[C@@H](N)CCC(=O)O)CSSC[C@@H](C(=O)NCC(=O)N[C@@H](CC(C)C)C(=O)N[C@H](C(=O)NCC(=O)O)C(C)C)NC1=O [BP3-4B3.3] (H-EESECFEGPGYVICGLVG-OH; disulfide 5-14; N-terminus and C-terminus assumed)	80			
CC[C@H](C)[C@@H]1NC(=O)[C@@H](NC(=O)[C@@H](NC(=O)[C@H](Cc2c[nH]c3ccccc23)NC(=O)CNC(=O)[C@H](CC(=O)O)NC(=O)[C@H](CC(C)C)NC(=O)[C@@H](N)CCC(=O)O)C(C)C)CSSC[C@@H](C(=O)N[C@@H](Cc2ccc(O)cc2)C(=O)N[C@@H](CC(C)C)C(=O)N[C@@H](C)C(=O)N[C@@H](CCC(=O)O)C(=O)NCC(N)=O)NC(=O)[C@H](CC(C)C)NC(=O)[C@H](CC(N)=O)NC(=O)[C@H](CCC(N)=O)NC(=O)[C@H](CCC(=O)O)NC(=O)CNC(=O)[C@H](C(C)C)NC(=O)[C@H](CCCCN)NC1=O [BP3-23] (H-ELDGWVCIKVGEQNLCYLAEG-NH2; disulfide 7-16; N-terminus assumed)	220			
CC(C)C[C@H](NC(=O)[C@@H](NC(=O)[C@H](Cc1ccc(O)cc1)NC(=O)[C@@H]1CSSC[C@H](NC(=O)[C@@H](NC(=O)[C@@H](NC(=O)[C@H](CCCCN)NC(=O)[C@H](Cc2ccccc2)NC(=O)[C@@H](N)Cc2c[nH]c3ccccc23)[C@@H](C)O)C(C)C)C(=O)N[C@@H](Cc2ccc(O)cc2)C(=O)N[C@@H](CCC(=O)O)C(=O)N[C@@H](Cc2c[nH]c3ccccc23)C(=O)N[C@@H](CCC(=O)O)C(=O)N[C@@H](CC(=O)O)C(=O)N[C@@H](CCC(=O)O)C(=O)N[C@@H](C(C)C)C(=O)N[C@@H](CCC(N)=O)C(=O)N1)[C@@H](C)O)C(=O)N[C@@H](CCC(=O)O)C(=O)N[C@@H](CCC(=O)O)C(=O)NCC(N)=O [BP3-24] (H-WFKTVCYEWEDEVQCYTLEEG-NH2; disulfide 6-15)	100 to 300			
CC[C@H](C)[C@H](NC(=O)[C@H](Cc1ccc(O)cc1)NC(=O)[C@H](C)NC(=O)CNC(=O)[C@@H](NC(=O)[C@@H](N)CCCNC(=N)N)C(C)C)C(=O)N[C@@H](CO)C(=O)N[C@H]1CSSC[C@@H](C(=O)N[C@@H](Cc2c[nH]c3ccccc23)C(=O)N[C@H](C(=O)N[C@@H](CCC(=O)O)C(=O)N[C@@H](CC(=O)O)C(=O)N[C@@H](CC(C)C)C(=O)N[C@@H](CC(C)C)C(=O)N[C@@H](CC(=O)O)C(=O)NCC(N)=O)C(C)C)NC(=O)[C@H](CCC(=O)O)NC(=O)[C@H]([C@@H](C)O)NC(=O)[C@H](CCC(=O)O)NC(=O)[C@H](CO)NC1=O [BP3-25] (H-RVGAYISCSETECWVEDLLDG-NH2; disulfide 8-13)	> 1000			
CSCC[C@H](NC(=O)[C@@H]1CSSC[C@H](NC(=O)[C@H](CC(=O)O)NC(=O)[C@@H](NC(=O)CNC(=O)[C@@H](N)[C@@H](C)O)C(C)C)C(=O)N[C@@H](CCC(N)=O)C(=O)N[C@H]2CSSC[C@H](NC(=O)[C@H](Cc3c[nH]cn3)NC(=O)[C@H](C(C)C)NC(=O)[C@@H]3CCCN3C(=O)CNC2=O)C(=O)N[C@@H](C(C)C)C(=O)N1)C(=O)N[C@@H](CC(=O)O)C(=O)N[C@@H](Cc1c[nH]c2ccccc12)C(=O)N[C@@H](C)C(=O)O [BP06, TGVDCQC*GPVHC*VCMDWA] (H-TGVDCQCGPVHCVCMDWA-OH; disulfide 5-14, 7-12; N-terminus and C-terminus assumed)				IC50: 5 µM
CSCC[C@@H]1NC(=O)[C@H](Cc2ccc(O)cc2)NC(=O)[C@@H]2CSSC[C@H](NC(=O)[C@H](CC(C)C)NC(=O)[C@@H]3CCCN3C1=O)C(=O)N[C@@H](CC(C)C)C(=O)N[C@H](C(=O)N[C@@H](Cc1ccc(O)cc1)C(=O)N[C@@H](CC(=O)O)C(=O)N[C@@H](CO)C(=O)N[C@@H](CC(=O)O)C(=O)O)CSSC[C@H](NC(=O)[C@H](CC(N)=O)NC(=O)[C@H](C)NC(=O)[C@@H](NC(=O)[C@@H](N)[C@@H](C)O)C(C)C)C(=O)N[C@@H](CC(=O)O)C(=O)N2 [BP08, TVANCDC*YMPLC*LCYDSD] (H-TVANCDCYMPLCLCYDSD-OH; disulfide 5-14, 7-12; N-terminus and C-terminus assumed)				IC50: 15 µM
CC[C@H](C)[C@@H]1NC(=O)[C@H](Cc2ccc(O)cc2)NC(=O)CNC(=O)[C@H](CCC(N)=O)NC(=O)[C@H](CC(=O)O)NC(=O)[C@H](Cc2c[nH]cn2)NC(=O)[C@H](CCCNC(=N)N)NC(=O)[C@H](CC(=O)O)NC(=O)[C@H](Cc2c[nH]c3ccccc23)NC(=O)[C@@H](N)CSSC[C@@H](C(=O)N[C@H](C(=O)N[C@H](C(=O)N[C@@H](CC(=O)O)C(=O)N[C@@H](CO)C(=O)O)[C@@H](C)O)[C@@H](C)O)NC1=O [BP13] (H-CWDRHDQGYICTTDS-OH; disulfide 1-11)	> 1000			
CC(C)C[C@@H]1NC(=O)[C@H](Cc2ccc(O)cc2)NC(=O)[C@H](Cc2c[nH]c3ccccc23)NC(=O)[C@H](CCC(=O)O)NC(=O)[C@H](C)NC(=O)[C@H](C(C)C)NC(=O)[C@@H]2CCCN2C(=O)[C@H](Cc2c[nH]c3ccccc23)NC(=O)[C@@H](NC(=O)[C@@H](NC(=O)[C@@H](N)CCC(=O)O)C(C)C)CSSC[C@@H](C(=O)N[C@@H](CC(N)=O)C(=O)O)NC1=O [bp3-27] (H-EVCWPVAEWYLCN-OH; disulfide 3-12; N-terminus and C-terminus assumed)		2.8	1.4	
CC(C)C[C@@H]1NC(=O)[C@H](Cc2ccc(O)cc2)NC(=O)[C@H](Cc2c[nH]c3ccccc23)NC(=O)[C@H](CCC(=O)O)NC(=O)[C@H](C)NC(=O)[C@H](C(C)C)NC(=O)[C@@H]2CCCN2C(=O)[C@H](Cc2c[nH]c3ccccc23)NC(=O)[C@@H](NC(=O)[C@@H](NC(=O)[C@H](CCC(=O)O)NC(=O)[C@@H](N)CCC(=O)O)C(C)C)CSSC[C@@H](C(=O)N[C@@H](CC(N)=O)C(=O)O)NC1=O [bp3-28] (H-EEVCWPVAEWYLCN-OH; disulfide 4-13 (inferred); N-terminus and C-terminus assumed)		5.4	2.7	
CC(C)C[C@@H]1NC(=O)[C@H](Cc2ccc(O)cc2)NC(=O)[C@H](Cc2c[nH]c3ccccc23)NC(=O)[C@H](CCC(=O)O)NC(=O)[C@H](C)NC(=O)[C@H](C(C)C)NC(=O)[C@@H]2CCCN2C(=O)[C@H](Cc2c[nH]c3ccccc23)NC(=O)[C@@H](NC(=O)[C@@H](NC(=O)[C@H](CCC(=O)O)NC(=O)[C@H](CCC(=O)O)NC(=O)[C@H](CO)NC(=O)[C@H](C)N)C(C)C)CSSC[C@@H](C(=O)N[C@@H](CC(N)=O)C(=O)O)NC1=O [bp3-30] (H-ASEEVCWPVAEWYLCN-OH; disulfide 6-15; N-terminus and C-terminus assumed)		5.6	2.8	
CC(C)C[C@@H]1NC(=O)[C@H](Cc2ccc(O)cc2)NC(=O)[C@H](Cc2c[nH]c3ccccc23)NC(=O)[C@H](CCC(=O)O)NC(=O)[C@H](C)NC(=O)[C@H](C(C)C)NC(=O)[C@@H]2CCCN2C(=O)[C@H](Cc2c[nH]c3ccccc23)NC(=O)[C@@H](NC(=O)[C@@H](NC(=O)[C@H](CCC(=O)O)NC(=O)[C@H](CCC(=O)O)NC(=O)[C@@H](N)CO)C(C)C)CSSC[C@@H](C(=O)N[C@@H](CC(N)=O)C(N)=O)NC1=O [bp3-39] (H-SEEVCWPVAEWYLCN-NH2; disulfide 5-14 (inferred); N-terminus assumed)		0.66	0.33	
CC(=O)N[C@@H](CO)C(=O)N[C@@H](CCC(=O)O)C(=O)N[C@@H](CCC(=O)O)C(=O)N[C@H](C(=O)N[C@H]1CSSC[C@@H](C(=O)N[C@@H](CC(N)=O)C(N)=O)NC(=O)[C@H](CC(C)C)NC(=O)[C@H](Cc2ccc(O)cc2)NC(=O)[C@H](Cc2c[nH]c3ccccc23)NC(=O)[C@H](CCC(=O)O)NC(=O)[C@H](C)NC(=O)[C@H](C(C)C)NC(=O)[C@@H]2CCCN2C(=O)[C@H](Cc2c[nH]c3ccccc23)NC1=O)C(C)C [bp3-40] (Ac-SEEVCWPVAEWYLCN-NH2; disulfide 5-14 (inferred))		0.66	0.33	
CC(C)C[C@@H]1NC(=O)[C@H](Cc2ccc(O)cc2)NC(=O)[C@H](Cc2c[nH]c3ccccc23)NC(=O)[C@H](CCC(=O)O)NC(=O)[C@H](C)NC(=O)[C@H](C(C)C)NC(=O)[C@@H]2CCCN2C(=O)[C@H](Cc2c[nH]c3ccccc23)NC(=O)[C@@H](NC(=O)[C@@H](NC(=O)[C@H](CCC(=O)O)NC(=O)[C@@H]2CCCN2C(=O)CN)[C@@H](C)O)CSSC[C@@H](C(=O)N[C@@H](CC(N)=O)C(=O)O)NC1=O [bp3-41] (H-GPETCWPVAEWYLCN-OH; disulfide 5-14; N-terminus and C-terminus assumed)		4	2.0	
CC[C@H](C)[C@H](NC(=O)CCC(=O)O)C(=O)N1CCC[C@H]1C(=O)N[C@H](C(=O)N[C@@H](CO)C(=O)N1CCC[C@H]1C(=O)N[C@@H](CC(=O)O)C(=O)N[C@@H](Cc1c[nH]c2ccccc12)C(=O)N[C@@H](Cc1ccccc1)C(=O)N[C@H](C(=O)N[C@@H](CS)C(=O)N[C@@H](CCC(N)=O)C(N)=O)C(C)C)C(C)C [bp3-108] (Suc-IPVSPDWFVCQ-NH2)				IC50 (BIAcore competition, read-out: IC50, inhibition of IGFBP-3 binding to IGF-I): 20 µM
WPVAEWYLCN [bp3-24]		> 1000		

From patent US6632794B1, “Insulin-like growth factor agonist molecules” (Genentech, Inc., priority 1997, dated 2003)
